Structures can show the parent of a compound that is named as a salt.
tested on: normal mice; test: Oral glucose tolerance test on normal mouse; format: in vivo; conditions: ICR mice, nateglinide 10 mg/kg orally 30 minutes before glucose loading; at 30 minutes after glucose loading, relative to control group
Protocol: (2) Oral Glucose Tolerance Test on Normal Mouse
In this assay, preventive activities of test compounds against hyperglycemia following glucose loading were examined using normal mice and nateglinide, a commercially available oral anti-hyperglycemic agent, as a reference compound. The assay procedure is given below.
ICR mice (male, six weeks old) that had been preliminary bred for one week were fasted for 18 to 20 hours to use as test animals. Each test compound was dissolved in 0.5% methylcellulose solution and orally administered at 3 mg/kg (10 mg/kg for nateglinide) before glucose loading. Timing to administer the test compound was selected to be optimal for each test compound, which was 10 minutes before glucose loading for the compounds of the present invention or 30 minutes before glucose loading for nateglinide, which was a reference compound. The hypoglycemic rate (%) at 30 minutes after glucose loading was measured relative to the control group.

CC(C)[C@H]1CC[C@H](C(=O)N[C@H](Cc2ccccc2)C(=O)O)CC1 [Nateglinide, nateglinide] was tested, and the “Hypoglycemic rate, %” value was 26%.

tested on: MIN6B1 cell; test: Assay for promoting activity on insulin secretion; format: cell-based, mouse; conditions: 10 μM test compound in KRB-HEPES with 16.8 mM glucose, 37° C., 22 minutes; relative value, insulin concentration for only DMSO = 100%
Protocol: (1) Assay for Promoting Activity on Insulin Secretion
In this assay, promoting activities on insulin secretion of the test compounds were studied using MIN6B1 cell, which was a strain of mouse pancreatic β-cells, and glibenclamide, which was a commercially available insulin secretion secretagogue, as a reference compound. The assay procedure is given below.
MIN6B1 cells were seeded on a 48-well plate at a concentration of 1×10^5 cells/well (0.25 ml) (The medium was prepared by adding FCS (fetal calf serum) to DMEM (Dulbecco's Modified Eagle Medium) containing 25 mM glucose such that the FCS concentration became 10%). After two days, the medium was suctioned by an aspirator, each well was Washed four times with 0.2 ml of KRB-HEPES buffer (Krebs-Ringer-bicarbonate-N-2-hydroxylethylpiperazine-N′-2-ethanesulfonic acid; 130 mM NaCl, 4.7 mM KCl, 1.2 mM KH2PO4, 1.2 mM MgCl2.6H2O, 0.25 mM CaCl2.2H2O, 2.5 mM NaHCO3, 0.5% BSA, and 10 mM N-2-hydroxyethylpiperazine-N′-2-ethanesulfonic acid (pH 7.4)) containing 2.8 mM glucose warmed to 37° C., 0.2 ml of said buffer was again added, and the cells were incubated at 37° C. for 30 to 60 minutes. After the buffer was suctioned by an aspirator, 0.25 ml of a solution containing 10 μM of each test compound in KRB-HEPES containing 16.8 mM glucose was added to each well, and the cells were incubated at 37° C. for 22 minutes. The samples were pipetted and diluted by 25 to 51 times, and the insulin concentrations were analyzed using an insulin assay kit (Rat Insulin [^125I] Biotrak Assay System with Magnetic Separation; Amersham Bioscience K.K.). The test compounds were dissolved in 100% DMSO, and were added at the final concentration of 0.1%. The activity was expressed as a relative value, provided that insulin concentration for only DMSO was 100%.

In order of falling “Promotion activity on insulin secretion, %” value:
1. O=S1(=O)Cc2nc(-c3cc(F)c(Cl)cc3F)nc(N3CCC(O)(CCCO)CC3)c2C1 [Example 272, 1-[2-(4-chloro-2,5-difluorophenyl)-6,6-dioidxo-5,7-dihydrothieno[3,4-d]pyrimidin-4-yl]-4-(3-hydroxypropyl)piperidin-4-ol]  322%
2. O=C(CO)NCC1CCN(c2nc(-c3cc(F)c(Cl)cc3F)nc3c2CS(=O)(=O)C3)CC1 [Example 331]  308%

same assay, conditions: Mus musculus, 22 min, 10 μM test compound in KRB-HEPES with 16.8 mM glucose, 37° C., relative value, insulin concentration for only DMSO = 100%, read-out: Promotion activity on insulin secretion, %

In order of falling activity at 10 µM:
1. NC(=O)CCC1CCN(c2nc(-c3cc(F)c(Cl)cc3F)nc3c2CS(=O)(=O)C3)CC1 [Example 283, 3-{1-[2-(4-chloro-2,5-difluorophenyl)-6,6-dioxido-5,7-dihydrothieno[3,4-d]pyrimidin-4-yl]piperidin-4-yl}propanamide]  375%
2. C[C@@H]1CCCN(c2nc(-c3cc(F)c(Cl)cc3F)nc3c2CS(=O)(=O)C3)C1 [Example 1, (R)-2-(4-chloro-2,5-difluorophenyl)-4-(3-methylpiperidin-1-yl)-5,7-dihydrothieno[3,4-d]pyrimidine 6,6-dioxide hydrochloride]  355%
3. O=C(O)CCCC1CCN(c2nc(C3CCCC3)nc3c2CS(=O)(=O)C3)CC1 [Example 407, 4-[1-(2-cyclopentyl-6,6-dioxido-5,7-dihydrothieno[3,4-d]pyrimidin-4-yl)piperidin-4-yl]butyric acid]  325%
4. O=C(O)CCCC1CCN(c2nc(-c3cc(F)c(Cl)cc3F)nc3c2CS(=O)(=O)C3)CC1 [Example 291, 4-{1-[2-(4-chloro-2,5-difluorophenyl)-6,6-dioxido-5,7-dihydrothieno[3,4-d]pyrimidin-4-yl]piperidin-4-yl}butyric acid]  269%
5. O=C(O)CCNC1CCN(c2nc(-c3cc(F)c(Cl)cc3F)nc3c2CS(=O)(=O)C3)CC1 [Example 288, 3-({1-[2-(4-chloro-2,5-difluorophenyl)-6,6-dioxido-5,7-dihydrothieno[3,4-d]pyrimidin-4-yl]piperidin-4-yl}amino)propionic acid]  253%
6. NC(=O)CCN1CCN(c2nc(-c3cc(F)c(Cl)cc3F)nc3c2CS(=O)(=O)C3)CC1 [Example 269, 3-{4-[2-(4-chloro-2,5-difluorophenyl)-6,6-dioxido-5,7-dihydrothieno[3,4-d]pyrimidin-4-yl]piperazin-1-yl}propanamide]  212%
7. O=S1(=O)Cc2nc(-c3cc(F)c(Cl)cc3F)nc(N3CCC(NCCCO)CC3)c2C1 [Example 287, 3-({1-[2-(4-chloro-2,5-difluorophenyl)-6,6-dioxido-5,7-dihydrothieno[3,4-d]pyrimidin-4-yl]piperidin-4-yl}amino)propan-1-ol]  208%
8. COc1ccc(Cl)cc1C(=O)NCCc1ccc(S(=O)(=O)NC(=O)NC2CCCCC2)cc1 [Glibenclamide, glibenclamide, reference compound]  122%
